Among the data in US9273003B2, “Methods of treating lymphoma and rheumatoid arthritis with cyclopentyl (2S)-cyclohexyl[({6-[3-(hydroxyamino)-3-oxopropyl]pyridin-3-yl}methyl)amino]acetate” (GlaxoSmithKline Intellectual Property Development Limited, priority 2006, dated 2016) are IC50 values, retold here.

Test [1] addresses histone deacetylase activity (HeLa nuclear extract). Kind of test: HDAC fluorescent activity assay (Fluor de Lys, Biomol). The class given is biochemical. Particulars: IC50 allocated to ranges, read-out: HDAC activity. As for the experimental part:
The ability of compounds to inhibit histone deacetylase activities was measured using the commercially available HDAC fluorescent activity assay from Biomol. In brief, the Fluor de Lys™ substrate, a lysine with an epsilon-amino acetylation, is incubated with the source of histone deacetylase activity (HeLa nuclear extract) in the presence or absence of inhibitor. Deacetylation of the substrate sensitises the substrate to Fluor de Lys™ developer, which generates a fluorophore. Thus, incubation of the substrate with a source of HDAC activity results in an increase in signal that is diminished in the presence of an HDAC inhibitor.
Data are expressed as a percentage of the control, measured in the absence of inhibitor, with background signal being subtracted from all samples, as follows: % activity=[(S^i−B)/(S^o−B)]×100 where S^i is the signal in the presence of substrate, enzyme and inhibitor, S^o is the signal in the presence of substrate, enzyme and the vehicle in which the inhibitor is dissolved, and B is the background signal measured in the absence of enzyme.
IC50 values were determined by non-linear regression analysis, after fitting the results of eight data points to the equation for sigmoidal dose response with variable slope (% activity against log concentration of Compound), using Graphpad Prism software.
Histone deacetylase activity from crude nuclear extract derived from HeLa cells was used for screening. The preparation, purchased from 4C (Seneffe, Belgium), was prepared from HeLa cells harvested whilst in exponential growth phase. The nuclear extract was prepared according to the methodology described by J. D. Dignam, Nucl. Acid. Res., 1983, 11, 1475-1489, snap frozen in liquid nitrogen and stored at −80° C. The final buffer composition was 20 mM Hepes, 100 mM KCl, 0.2 mM EDTA, 0.5 mM DTT, 0.2 mM PMSF and 20% (v/v) glycerol.

Test [2] concerns HUT78 cells. Kind of test: HUT cell inhibition assay (WST-1 cell viability). The class given is cell-based. Particulars: Homo sapiens; HUT78 cells; IC50 allocated to ranges; read-out: HUT activity. As for the experimental part: (§1) Cancer cell lines (U937 and HUT) growing in log phase were harvested and seeded at 1000-2000 cells/well (100 μl final volume) into 96-well tissue culture plates. Following 24 h of growth cells were treated with Compound. Plates were then re-incubated for a further 72-96 h before a WST-1 cell viability assay was conducted according to the suppliers (Roche Applied Science) instructions.
(§2) Data were expressed as a percentage inhibition of the control, measured in the absence of inhibitor, as follows: % inhibition=100−[(S^i/S^o)×100] where S^i is the signal in the presence of inhibitor and S^o is the signal in the presence of DMSO.
(§3) Dose response curves were generated from 8 concentrations (top final concentration 10 μM, with 3-fold dilutions), using 6 replicates.
(§4) IC50 values were determined by non-linear regression analysis, after fitting the results to the equation for sigmoidal dose response with variable slope (% activity against log concentration of Compound), using Graphpad Prism software.
(Tetrazolium dyes change colour on reduction, which living cells bring about.)

The subject of test [3] is U937 cells. Kind of test: U937 cell inhibition assay (WST-1 cell viability). Particulars: Homo sapiens, U-937; U937 cells; IC50 allocated to ranges; read-out: U937 activity. The format is cell-based. As to the method:
as §1, §2, §3, §4

Where only a bound is given, the exact number is not on record here.

`O=C(CCc1ccc(CN[C@H](C(=O)OC2CCCC2)c2ccccc2)cn1)NO` [Example 65, Cyclopentyl (2S)-[({6-[3-(hydroxyamino)-3-oxopropyl]pyridin-3-yl}methyl)amino](phenyl)acetate]: the IC50 in test [1] is 101 to 1000 nM; in test [2] it was 331 to 3300 nM; in test [3] it was under 330 nM.
For `CC(C)C[C@H](NCc1ccc(/C=C/C(=O)NO)cn1)C(=O)OC(C)(C)C` [Example 69, tert-Butyl N-({5-[(1E)-3-(hydroxyamino)-3-oxoprop-1-en-1-yl]pyridin-2-yl}methyl)-L-leucinate] the same measures were 101 to 1000 nM, 331 to 3300 nM and 331 to 3300 nM.
Take `O=C(/C=C/c1ccc(CN[C@H](C(=O)OCc2ccccc2)C2CCCCC2)cc1)NO` [Example 24, Benzyl (2S)-cyclohexyl({4-[(1E)-3-(hydroxyamino)-3-oxoprop-1-en-1-yl]benzyl}amino)acetate]: the IC50 in test [1] was under 100 nM; in test [2], under 330 nM; in test [3], under 330 nM.
Regarding `CC(C)(C)OC(=O)[C@@H](NCc1ccc(/C=C/C(=O)NO)nc1)C1CCCCC1` [Example 59, tert-Butyl (2S)-cyclohexyl[({6-[(1E)-3-(hydroxyamino)-3-oxoprop-1-en-1-yl]pyridin-3-yl}methyl)amino]acetate], the IC50 in test [1] is under 100 nM; in test [2], under 330 nM; in test [3] it was under 330 nM.
On to `O=C(CCc1ccc(CN[C@H](C(=O)OC2CCCC2)C2CCCCC2)cn1)NO` [Example 62, Cyclopentyl (2S)-cyclohexyl[({6-[3-(hydroxyamino)-3-oxopropyl]pyridin-3-yl}methyl)amino]acetate], for which the IC50 in test [1] was under 100 nM; in test [2], 331 to 3300 nM; in test [3], under 330 nM.
For `O=C(/C=C/c1ccc(CN[C@H](CO)C(=O)OC2CCCC2)cc1)NO` [Example 72, Cyclopentyl N-{4-[(1E)-3-(hydroxyamino)-3-oxoprop-1-en-1-yl]benzyl}-D-serinate] the same measures were 101 to 1000 nM, 331 to 3300 nM and 331 to 3300 nM.
`O=C(/C=C/c1ccc(CN[C@H](C(=O)OC2CCCC2)C2CCCCC2)nc1)NO` [Example 68, Cyclopentyl (2S)-cyclohexyl[({5-[(1E)-3-(hydroxyamino)-3-oxoprop-1-en-1-yl]pyridin-2-yl}methyl)amino]acetate]: the IC50 in test [1] is under 100 nM; in test [2] it was 331 to 3300 nM; in test [3] it was under 330 nM.
Taken in the same sequence, the figures for `CC(C)C[C@H](NC(C)c1ccc(/C=C/C(=O)NO)cc1)C(=O)OC(C)(C)C` (stereo partly drawn) [Example 85, tert-Butyl N-(1-{4-[(1E)-3-(hydroxyamino)-3-oxoprop-1-en-1-yl]phenyl}ethyl)-L-leucinate] were under 100 nM, under 330 nM and under 330 nM.
For `O=C(CCc1ccc(CNCc2ccc(CN[C@H](C(=O)OC3CCCC3)C3CCCCC3)cc2)cc1)NO` [Example 77, Cyclopentyl (2S)-cyclohexyl({4-[({4-[3-(hydroxyamino)-3-oxopropyl]benzyl}amino)methyl]benzyl}amino)acetate] the same measures were 101 to 1000 nM, 331 to 3300 nM and under 330 nM.
With `CC(C)C[C@H](NCc1ccc(CCC(=O)NO)nc1)C(=O)O[C@@H]1C[C@H](C)CC[C@H]1C(C)C` [Example 67, (1R,2S,5R)-2-Isopropyl-5-methylcyclohexyl N-({6-[3-(hydroxyamino)-3-oxopropyl]pyridin-3-yl}methyl)-L-leucinate], the IC50 in test [1] is 101 to 1000 nM; in test [2], 331 to 3300 nM; in test [3], under 330 nM.
As for `O=C(/C=C/c1ccc(CN[C@H](C(=O)OCCN2CCOCC2)C2CCCCC2)cc1)NO` [Example 30, 2-Morpholin-4-ylethyl (2S)-cyclohexyl({4-[(1E)-3-(hydroxyamino)-3-oxoprop-1-en-1-yl]benzyl}amino)acetate], the IC50 in test [1] is 101 to 1000 nM; in test [2] it was under 330 nM; in test [3], under 330 nM.
As for `CC(C)C[C@H](NCCc1ccc(/C=C/C(=O)NO)cc1)C(=O)OC(C)(C)C` [Example 87, tert-Butyl N-(2-{4-[(1E)-3-(hydroxyamino)-3-oxoprop-1-en-1-yl]phenyl}ethyl)-L-leucinate], the figures for the IC50 in test [1], in test [2] and in test [3] were 101 to 1000 nM, 331 to 3300 nM and 331 to 3300 nM, respectively.
For the compound `CC[C@H](C)[C@H](NCc1ccc(CCC(=O)NO)cc1)C(=O)OC(C)(C)C` [Example 44, tert-Butyl N-{4-[3-(hydroxyamino)-3-oxopropyl]benzyl}isoleucinate], the figures for the IC50 in test [1], in test [2] and in test [3] were 101 to 1000 nM, 331 to 3300 nM and 331 to 3300 nM, respectively.
For the compound `CC(C)C[C@H](NC(C)c1ccc(CCC(=O)NO)cc1)C(=O)OC(C)(C)C` (stereo partly drawn) [Example 86, tert-Butyl N-(1-{4-[3-(hydroxyamino)-3-oxopropyl]phenyl}ethyl)-L-leucinate], the IC50 in test [1] is 101 to 1000 nM; in test [2] it was 331 to 3300 nM; in test [3] it was under 330 nM.
On to `O=C(/C=C/c1ccc(CN[C@H](C(=O)OC2CCCC2)C2CCCCC2)cn1)NO` [Example 53, Cyclopentyl (2S)-cyclohexyl[({6-[(1E)-3-(hydroxyamino)-3-oxoprop-1-en-1-yl]pyridin-3-yl}methyl)amino]acetate], for which the IC50 in test [1] is under 100 nM; in test [2], under 330 nM; in test [3], under 330 nM.
Take `CC(C)(C)OC(=O)[C@@H](NCc1ccc(CCC(=O)NO)nc1)c1ccccc1` [Example 64, tert-Butyl (2S)-[({6-[3-(hydroxyamino)-3-oxopropyl]pyridin-3-yl}methyl)amino](phenyl)acetate]: the figures for the IC50 in test [1], in test [2] and in test [3] were 101 to 1000 nM, 331 to 3300 nM and 331 to 3300 nM, respectively.
Turning to `CC(C)C[C@H](NCc1ccc(CNCc2ccc(/C=C/C(=O)NO)cc2)cc1)C(=O)OC(C)(C)C` [Example 76, tert-Butyl N-{4-[({4-[(1E)-3-(hydroxyamino)-3-oxoprop-1-en-1-yl]benzyl}amino)methyl]benzyl}-L-leucinate], the figures for the IC50 in test [1], in test [2] and in test [3] were under 100 nM, under 330 nM and under 330 nM, respectively.
For `CN(C)CCOC(=O)[C@@H](NCc1ccc(/C=C/C(=O)NO)cc1)C1CCCCC1` [Example 31, 2-(Dimethylamino)ethyl (2S)-cyclohexyl({4-[(1E)-3-(hydroxyamino)-3-oxoprop-1-en-1-yl]benzyl}amino)acetate], the figures for the IC50 in test [1], in test [2] and in test [3] were under 100 nM, 331 to 3300 nM and under 330 nM, respectively.
Consider `CC(C)(C)OC(=O)[C@@H](NCc1ccc(/C=C/C(=O)NO)cc1)C1CCCCC1` [Example 32, tert-Butyl (2S)-cyclohexyl({4-[(1E)-3-(hydroxyamino)-3-oxoprop-1-en-1-yl]benzyl}amino)acetate], for which the IC50 in test [1] is under 100 nM; in test [2], 331 to 3300 nM; in test [3], 331 to 3300 nM.
Consider `O=C(CCc1cccc(CN[C@H](C(=O)OC2CCCC2)C2CCCCC2)c1)NO` [Example 50, Cyclopentyl (2S)-cyclohexyl({3-[3-(hydroxyamino)-3-oxopropyl]benzyl}amino)acetate], for which the results for the IC50 in test [1], in test [2] and in test [3] were 101 to 1000 nM, 331 to 3300 nM and 331 to 3300 nM, respectively.
In the case of `O=C(/C=C/c1ccc(CN[C@H](C(=O)OC2CCCC2)c2ccccc2)cn1)NO` [Example 60, Cyclopentyl (2S)-[({6-[(1E)-3-(hydroxyamino)-3-oxoprop-1-en-1-yl]pyridin-3-yl}methyl)amino](phenyl)acetate], the figures for the IC50 in test [1], in test [2] and in test [3] were under 100 nM, under 330 nM and under 330 nM, respectively.
As to `CC(C)(C)[C@H](NCc1ccc(CCC(=O)NO)cc1)C(=O)OC1CCCC1` [Example 43, Cyclopentyl N-{4-[3-(hydroxyamino)-3-oxopropyl]benzyl}-3-methyl-L-valinate], the IC50 in test [1] is over 1000 nM; in test [2] it was 331 to 3300 nM; in test [3], 331 to 3300 nM.
On to `CC(C)(C)OC(=O)[C@@H](NCc1ccc(CCC(=O)NO)cc1)C1CCCCC1` [Example 40, tert-Butyl (2S)-cyclohexyl({4-[3-(hydroxyamino)-3-oxopropyl]benzyl}amino)acetate], for which the IC50 in test [1] was under 100 nM; in test [2] it was 331 to 3300 nM; in test [3] it was 331 to 3300 nM.
